Experiments:
[1] = test system: hESCs (hESC line RC-0913); assay: Immunostaining of marker proteins during differentiation of hESCs; type: cell-based, human
Procedure: (§1) Clinical-grade hESC line RC-0913, was used and cultured in feeder free conditions using mTeSR™ Medium (StemCell technologies) and hESC qualified Matrigel (Corning). Cells were banked at passage 36 and used for RPE differentiation between passage 38 and 45. Cells were plated at 5×10^4 cells per cm^2 and grown until they reached 80 percent of confluence before switching to a differentiation medium composed of Dulbecco's modified Eagle's medium (high glucose, Thermo Fisher Scientific) supplemented with 50 μM β-mercaptoethanol, 1× minimum essential medium-nonessential amino acids (Thermo Fisher Scientific) and 20% (D0-D42) or 4% (after passage 1) of knockout serum replacement (KSR, Thermo Fisher Scientific). During all the differentiation process the medium was changed every 2/3 days.
(§2) For the referred “directed differentiation” protocol, 10 mM Nicotinamide (Sigma), 100 ng/ml Activin A
(§3) (Peprotech) and 3 μM CHIR99021 (Tocris) were added sequentially to the basal differentiation medium at specific time points (FIG. 2A).
hESC-RPE cells were grown on Matrigel-coated 96 or 24-well plates. Adherent cells were fixed in 4% PFA for 10 min at room temperature (RT) and rinsed 3 times with PBS. After 30 min in blocking solution (10% FBS in 0.1% Triton PBS) at RT, cells were incubated with primary antibodies overnight at 4° C. After 3 washes in PBS, appropriate Alexa Fluor-conjugated secondary antibodies (Invitrogen) were added at 1:500 for 1 h at RT in presence of DAPI (Invitrogen).
Images were acquired with an Axio observer Z1 microscope (Zeiss) with a Hamamatsu ORCA-flash 4.0 camera and a spinning disk unit (Yokogawa CSU-X1-A1N-E; Camera evolve, EMCCD 512) with Metamorph software or with a LSM-800 confocal microscope (Zeiss) with Zen software. Images were exported, analyzed and processed with Fiji software. […] The quantification of pigmented areas was performed after manual delimitation of culture dish areas using Fiji software. Pictures were then binarized to 8-bit images using a fixed intensity threshold and the black area fraction was measured (not herein shown).

[2] = test system: hESCs (hESC line RC-0913); assay: RT-qPCR of retinal development markers during differentiation of hESCs; type: cell-based, human
Procedure: as §1, §2, §3
Total RNAs were extracted using RNAeasy Plus Mini kit (Qiagen) and cDNA synthesized using SuperScript III (Invitrogen). Quantitative real-time RT-PCR was performed using a Quant Studio 12K flex (Applied Biosystems) with HiGreen qPCR Master Mix (Thermo Fisher Scientific). Experiments were performed with at least three technical replicates per plate and expression levels were normalized to 18S. Relative expression compared to hESCs gene expression levels were determined by calculating the 2-ΔΔCt.

[3] = CHIR99021 from day 14 to day 35-42

With `Cc1c[nH]c(-c2cnc(NCCNc3ccc(C#N)cn3)nc2-c2ccc(Cl)cc2Cl)n1` [CHIR99021] the “MITF+ cells” value ([1]; day 21, CHIR99021 from day 14) was 87.5%±12.5%, the VSX2 positive cells ([1]; day 21, CHIR99021 from day 14) was “absence” and the “MITF expression (mRNA)” value [2, 3] was “continuous increased expression”. For the same molecule, the “VSX2 mRNA levels” value [2, 3] was “acute decreased expression”.

In the case of `NC(=O)c1cccnc1` [Nicotinamide], the “cells co-expressing LHX2 and PAX6 proteins” value ([1]; day 7 after Nicotinamide treatment, n=3) is reported as 86.8%±4.3%, the “transient expression of early eye field transcription factors SIX3 and RAX (mRNA)” value ([2]; Nicotinamide 10 mM, first 7 days of differentiation, compared to spontaneous protocol, p<0.01) is reported as “significantly enhanced” and the “expression of pluripotency marker NANOG (mRNA)” value ([2]; Nicotinamide 10 mM, first 7 days, compared to spontaneous protocol, p<0.01) is reported as “higher decrease”.

B1: Activin A: member of TGF β superfamily, second differentiating agent, 100 ng/ml (Peprotech) (protein, UniProt P08476 311-426, looked up)
Inhibin beta A chain: GLECDGKVNICCKKQFFVSFKDIGWNDWIIAPSGYHANYCEGECPSHIAGTSGSSLSFHSTVINHYRMRGHSPFANLKSCCVPTKLRPMSMLYYDDGQNIIKKDIQNMIVEECGCS
modifications: Inhibin beta A chain
In the case of B1, the “RAX and SIX3 mRNA levels” value ([2]; Activin A day 7 to day 14) is reported as “decreased” and the “expression of optic vesicle transcription factors VSX2 and MITF (mRNA)” value ([2]; Activin A day 7 to day 14, compared to spontaneous differentiation, p≤0.05) is reported as “significantly increased”.

Source: patent publication US12618045B2, “Automated method for preparing retinal pigment epithelium cells” (CENTRE D'ETUDE DES CELLULES SOUCHES (CECS), priority 2019, dated 2026)
